Measured values: patent publication US6586441B2, “Adenosine receptor ligands and their use in the treatment of disease” (Hoffman-La Roche Inc., priority 2000, dated 2003)
Like-named read-outs stand apart in the source and are kept apart here.

What was measured:
[1] = molecular target: T1, human adenosine A3 receptor (Homo sapiens, UniProt P0DMS8); experiment: Human adenosine A3 receptor [125I]-AB-MECA binding assay; conditions: membranes of CHO cells, read-out: hA3 (pKi) (converted)
T1 construct: expressed in transfected cells; host or cells: CHO cells, semliki forest virus expression system; membrane preparation
T1 sequence (P0DMS8 1-318): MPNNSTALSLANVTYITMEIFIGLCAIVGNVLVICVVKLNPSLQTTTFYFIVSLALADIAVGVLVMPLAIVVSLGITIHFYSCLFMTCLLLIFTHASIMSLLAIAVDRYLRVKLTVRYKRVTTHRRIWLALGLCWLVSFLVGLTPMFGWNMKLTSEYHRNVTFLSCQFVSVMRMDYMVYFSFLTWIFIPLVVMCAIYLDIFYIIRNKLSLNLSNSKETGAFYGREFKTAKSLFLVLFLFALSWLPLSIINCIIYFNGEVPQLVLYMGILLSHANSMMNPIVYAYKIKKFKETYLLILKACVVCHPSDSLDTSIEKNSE
Protocol: The gene encoding human adenosine A3 receptor was recombinantly introduced and expressed in chinese hamster ovary (CHO) cells using the semliki forest virus expression system. Cells were harvested, washed twice by centrifugation, homogenised and again washed by centrifugation. The final washed membrane pellet was suspended in a Tris (50 mM) buffer containing 120 mM NaCl, 5 mM KCl, 2 mM CaCl2 and 10 mM MgCl2 (pH 7.4) (buffer A). The [^125I]-AB-MECA ([N(6)-(4-amino-3-iodobenzyl)-5′-N-methylcarbamoyl-adenosine]; 0.05 nM) binding assay was carried out in 96-well plates in the presence of 20 μg of membrane protein and 0.1 U adenosine deaminase in a final volume of 200 μl of buffer A. Non-specific binding was defined using xanthine amine congener (XAC; 2 μM). Compounds were tested at 10 concentrations from 10 μM-0.3 nM. All assays were conducted in duplicate and repeated at least two times. Assay plates were incubated for 1 hour at room temperature before filtration through Whatman Unifilter GF/C 96-well filter plates (preincubated with 0.3% polyethyleneimine). Filters were washed 3 times with 0.3 ml of cold (4° C.) Tris (50 mM)-Nacl (120 mM) buffer (pH 7.4). Microscint 40 scintillation fluid (50 μl) was added to each well and the wells sealed. After gentle shaking for 20 min, plates were counted on a Packard Topcount scintillation counter. IC50 values were calculated using a non-linear curve fitting program and Ki values calculated using the Cheng-Prussoff equation.

[2] = molecular target: T2, human adenosine A2A receptor (Homo sapiens, UniProt P29274); experiment: Human adenosine A2A receptor [3H]-SCH-58261 binding assay
T2 construct: expressed in transfected cells; host or cells: CHO cells, semliki forest virus expression system; membrane preparation
T2 sequence (P29274 whole entry): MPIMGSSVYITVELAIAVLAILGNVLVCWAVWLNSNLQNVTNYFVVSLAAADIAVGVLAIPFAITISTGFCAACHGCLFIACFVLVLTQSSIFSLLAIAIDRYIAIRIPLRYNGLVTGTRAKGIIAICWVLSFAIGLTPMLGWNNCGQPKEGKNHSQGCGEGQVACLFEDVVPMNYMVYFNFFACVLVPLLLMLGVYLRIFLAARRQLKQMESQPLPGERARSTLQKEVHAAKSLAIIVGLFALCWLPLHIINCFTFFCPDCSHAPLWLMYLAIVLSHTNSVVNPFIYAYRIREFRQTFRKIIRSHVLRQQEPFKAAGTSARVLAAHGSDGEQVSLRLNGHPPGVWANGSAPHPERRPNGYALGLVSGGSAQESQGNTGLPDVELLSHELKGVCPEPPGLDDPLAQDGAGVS
Protocol: (§1) The gene encoding human adenosine A2A receptor was recombinantly introduced and expressed in chinese hamster ovary (CHO) cells using the semliki forest virus expression system. Cells were harvested, washed twice by centrifugation, homogenised and again washed by centrifugation. The final washed membrane pellet was suspended in a Tris (50 mM) buffer containing 120 mM NaCl, 5 mM KCl, 2 mM CaCl2 and 10 mM MgCl2 (pH 7.4) (buffer A). The [^3H]-SCH-58261 (Dionisotti et al., 1997, Br. J. Pharmacol. 121, 353; 1 nM) binding assay was carried out in 96-well plates in the presence of 2.5 μg of membrane protein, 0.5 mg of Ysi-poly-1-lysine SPA beads and 0.1 U adenosine deaminase in a final volume of 200 μl of buffer A. Non-specific binding was defined using xanthine amine congener (XAC; 2 EM). Compounds were tested at 10 concentrations from 10 μM-0.3 nM. All assays were conducted in duplicate and repeated at least two times. Assay plates were incubated for 1 hour at room temperature before centrifugation and then bound ligand determined using a Packard Topcount scintillation counter. IC50 values were calculated using a non-linear curve fitting program and Ki values calculated using the Cheng-Prussoff equation.

[3] = molecular target: T3, human adenosine A1 receptor (Homo sapiens, UniProt P30542); experiment: Human adenosine A1 receptor [3H]-DPCPX binding assay; conditions: membranes of CHO cells, read-out: hA1 (pKi) (converted)
T3 construct: expressed in transfected cells; host or cells: CHO cells, semliki forest virus expression system; membrane preparation
T3 sequence (P30542 1-326): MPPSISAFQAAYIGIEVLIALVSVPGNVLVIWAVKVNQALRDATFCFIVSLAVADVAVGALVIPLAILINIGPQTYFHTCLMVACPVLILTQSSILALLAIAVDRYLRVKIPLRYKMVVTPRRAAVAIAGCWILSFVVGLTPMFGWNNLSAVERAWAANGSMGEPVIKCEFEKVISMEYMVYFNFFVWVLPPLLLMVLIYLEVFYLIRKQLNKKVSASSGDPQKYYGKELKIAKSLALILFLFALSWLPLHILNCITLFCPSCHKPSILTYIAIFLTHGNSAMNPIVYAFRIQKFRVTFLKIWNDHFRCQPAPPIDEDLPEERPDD
Protocol: as §1, with “A1” for “A2A”, “[^3H]-DPCPX (([propyl-3H]8-cyclopentyl-1,3-dipropyxanthine); 0.6” for “[^3H]-SCH-58261 (Dionisotti et al., 1997, Br. J. Pharmacol. 121, 353; 1”, “0. I” for “0.1”, “μM).” for “EM).”

[4] = human A2A receptor, selectivity table, read-out: hA2 (pKi) (converted)
[5] = human A2A receptor, selectivity table
[6] = human A2a receptor, membranes of CHO cells, [3H]-SCH-58261, read-out: pKi (affinity to the human A2a receptor) (converted)
[7] = human A2a receptor, membranes of CHO cells, [3H]-SCH-58261

Structure (SMILES)	Ki [3] [nM]	Ki [2, 6] [nM]	other results
COc1cc(-c2nc(N)nc(SC)c2C#N)cc(OC)c1OC [Example 15, 2-Amino-4-methylsulfanyl-6-(3,4,5-trimethoxy-phenyl)-pyrimidine-5-carbonitrile]	1320		Ki [1]: 1950 nM; Ki [2, 4]: 57.5 nM
N#Cc1cnc(N)nc1-c1cccs1 [Example 26, 2-Amino-4-thiophen-2-yl-2-pyrimidine-5-carbonitrile]	2510		Ki [1]: 1260 nM; Ki [2, 4]: 36.3 nM
N#Cc1c(NCc2ccccc2)nc(N)nc1-c1ccco1 [Example 42, 2-Amino-4-benzylamino-6-furan-2-yl-pyrimidine-5-carbonitrile]	1660	4.68	Ki [1]: 8910 nM; hA2 (pKi) [2, 5]: 8.33
N#Cc1c(NCCNc2ccccc2)nc(N)nc1-c1ccco1 [Example 132, 2-Amino-4-furan-2-yl-6-(2-phenylamino-ethylamino)-pyrimidine-5-carbonitrile]	692	4.68	Ki [1]: 6030 nM; hA2 (pKi) [2, 5]: 8.33
N#Cc1c(/C=C/c2ccccc2)nc(N)nc1-c1ccco1 [Example 149, (E)-2-Amino-4-furan-2-yl-6-styryl-pyrimidine-5-carbonitrile]	389	4.57	Ki [1]: 2040 nM; hA2 (pKi) [2, 5]: 8.34
Cc1ccc(CNc2nc(N)nc(-c3ccco3)c2C#N)cc1 [Example 290, 2-Amino-4-furan-2-yl-6-(4-methyl-benzylamino)-pyrimidine-5-carbonitrile]	2040	6.76	hA2 (pKi) [2, 5]: 8.17
N#Cc1c(NCc2ccc3ccccc3c2)nc(N)nc1-c1ccco1 [Example 298, 2-Amino-4-furan-2-yl-6-[(naphthalen-2-ylmethyl)-amino]-pyrimidine-5-carbonitrile]	6920	5.89	hA2 (pKi) [2, 5]: 8.23
N#Cc1c(NCc2ccc(C(F)(F)F)cc2)nc(N)nc1-c1ccco1 [Example 345, 2-Amino-4-furan-2-yl-6-(4-trifluoromethyl-benzylamino)-pyrimidine-5-carbonitrile]	6310	4.17	hA2 (pKi) [2, 5]: 8.38
N#Cc1c(NCc2ncc(C(F)(F)F)cc2Cl)nc(N)nc1-c1ccco1 [Example 400, 2-Amino-4-[(3-chloro-5-trifluoromethyl-pyridin-2-yl-methyl)-amino]-6-furan-2-yl-pyrimidine-5-carbonitrile]	4470	3.63	hA2 (pKi) [2, 5]: 8.44
Cc1ccnc(CNc2nc(N)nc(C3=CCCO3)c2C#N)c1 [Example 464, 2-Amino-4-(4,5-dihydro-furan-2-yl)-6-[(4-methyl-pyridin-2-ylmethyl)-amino]-pyrimidine-5-carbonitrile]			pKi (affinity to the human A2a receptor) [2, 7]: 8.12
Cc1cnc(COc2nc(N)nc(-c3ccc(C)o3)c2C#N)c(C)c1 [Example 466, 2-Amino-4-(3,5-dimethyl-pyridin-2-ylmethoxy)-6-(5-methyl-furan-2-yl)-pyrimidine-5′-carbonitrile]			pKi (affinity to the human A2a receptor) [2, 7]: 8.97
N#Cc1c(SCCc2ccccn2)nc(N)nc1-c1ccc(Cl)o1 [Example 478]			pKi (affinity to the human A2a receptor) [2, 7]: 8.96
N#Cc1c(NCc2ccccc2Br)nc(N)nc1-c1ccc(Br)o1 [Example 512, 2-Amino-4-(2-bromo-benzylamino)-6-(5-bromo-furan-2-yl)-pyrimidine-5-carbonitrile]			pKi (affinity to the human A2a receptor) [2, 7]: 8.88
N#Cc1c(SCCc2ccccn2)nc(N)nc1-c1cc(Br)co1 [Example 521, 2-Amino-4-(4-bromo-furan-2-yl)-6-(2-pyridin-2-yl-ethylsulfanyl)-pyrimidine-5-carbonitrile]		1.17	
N#CCc1ccc(-c2nc(N)nc(SCCc3ccccn3)c2C#N)o1 [Example 524, 2-Amino-4-(5-cyanomethyl-fran-2-yl)-6-(2-pyridin-2:yl-ethylsulfanyl)-pyrimidine-5-carbonitrile]		5.75	
N#Cc1c(OCCc2ccccn2)nc(N)nc1-c1ccc(Cl)o1 [Example 525, 2-Amino-4-(5-chloro-furan-2-yl)-6-(2-pyridin-2-yl-ethoxy)-pyrimidine-5-carbonitrile]		0.871	
Cc1cnc(COc2nc(N)nc(-c3ccc(Cl)o3)c2C#N)c(C)c1 [Example 526, 2-Amino-4-(5-chloro-furan-2-yl)-6-(3,5-dimethyl-pyridin-2-ylmethoxy)-pyrimidine-5-carbonitrile]		4.27	
Cc1cccnc1COc1nc(N)nc(-c2ccc(Cl)o2)c1C#N [Example 530, 2-Amino-4-(5-chloro-furan-2-yl)-6-(3-methyl-pyridin-2-yl-methoxy)-pyrimidine-5-carbonitrile]		1.74	
Cc1ccc(COc2nc(N)nc(-c3ccc(Cl)o3)c2C#N)nc1 [Example 531, 2-Amino-4-(5-chloro-furan-2-yl)-6-(5-methyl-pyridin-2-yl-methoxy)-pyrimidine-5-carbonitrile]		5.62	
Cc1ccc(COc2nc(N)nc(-c3cc(Br)co3)c2C#N)nc1 [Example 532, 2-Amino-4-(4-bromo-furan-2-yl)-6-(5-methyl-pyridin-2-yl-methoxy)-pyrimidine-5-carbonitrile]		5.62	
Cc1cnc(COc2nc(N)nc(-c3cc(Br)co3)c2C#N)c(C)c1 [Example 533, 2-Amino-4-(4-bromo-furan-2-yl)-6-(3,5-dimethyl-pyridin-2-yl-methoxy)-pyrimidine-5-carbonitrile]		1.41	
Cc1cccnc1COc1nc(N)nc(-c2cc(Br)co2)c1C#N [Example 534, 2-Amino-4-(4-bromo-furan-2-yl)-6-(3-methyl-pyridin-2-yl-methoxy)-pyrimidine-5-carbonitrile]		0.955	
N#Cc1coc(-c2nc(N)nc(SCCc3ccccn3)c2C#N)c1 [Example 535, 2-Amino-4-(4-cyano-furan-2-yl)-6-(2-pyridin-2-yl-ethylsulfanyl)-pyrimidine-5-carbonitrile]		3.98	
N#Cc1c(SCCc2ccccn2)nc(N)nc1-c1ccc(C(F)F)o1 [Example 538, 2-Amino-4-(5-difluoromethyl-furan-2-yl)-6-(2-pyridin-2-yl-ethylsulfanyl)-pyrimidine-5-carbonitrile]		1.95	
